In patent US20260248763A1 (BIO GENUINE (SHANGHAI) BIOTECH CO., LTD, priority 2023, published 2026):

Biological target: T1, OTR (Homo sapiens, UniProt P30559)
T1 construct: expressed in transfected cells; host or cells: OTR/HEK293 stably transfected cell line
T1 sequence (P30559 1-389): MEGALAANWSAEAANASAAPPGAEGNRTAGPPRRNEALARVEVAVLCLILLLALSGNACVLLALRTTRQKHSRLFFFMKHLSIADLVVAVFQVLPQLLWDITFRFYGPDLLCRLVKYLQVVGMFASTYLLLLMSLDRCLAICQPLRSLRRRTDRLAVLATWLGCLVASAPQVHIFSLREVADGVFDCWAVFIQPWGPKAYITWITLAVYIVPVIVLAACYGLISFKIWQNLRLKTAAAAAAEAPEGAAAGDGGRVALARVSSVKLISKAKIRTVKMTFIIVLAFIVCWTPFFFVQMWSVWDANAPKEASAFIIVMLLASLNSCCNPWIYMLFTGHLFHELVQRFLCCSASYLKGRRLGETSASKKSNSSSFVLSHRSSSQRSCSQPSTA
Assay: Ca2+ mobilization in cells stably expressing OTR (FLIPR, antagonist mode)
Assay type: cell-based
Conditions: OTR/HEK293 stably transfected cell line
Text: Test Example 1. Determination of the Effect of the Compound of the Present Disclosure on Ca^2+ Mobilization in Cells Stably Expressing OTR
To measure the antagonistic effect of the compound of the present disclosure on OTR activity expressed in the OTR/HEK293 stably transfected cell line.
• DMEM medium (Invitrogen, 11965) • F12 medium (Invitrogen, 11765) • Fetal bovine serum (Excell, FSP500) • Geneticin (Invitrogen, 10131) • Penicillin/Streptomycin (Invitrogen, SV30010) • Fluo-4 Direct kit (Invitrogen, F10471) • 384-well cell plate (Greiner, 781090) • 384-well compound plate (Greiner, 781280)
• FLIPR instrument (Molecular Device) • EHCO instrument (Labcyte) • Cell counter (Beckman, Vi-cell XR)
The cultured cells were washed twice with pre-heated DPBS and digested with appropriate amount of trypsin at 37° C. for 1 minute, and then appropriate amount of culture medium was added to terminate digestion. The cells were centrifuged at 1000 rpm for 5 minutes. The supernatant was gently discarded without disturbing the cell pellet at the bottom. The cells were resuspended in culture medium and 1 mL was taken out for cell counting and viability assessment using Vi-CELL™. The cells were diluted to 1×10^6 cells/mL (20,000 cells/20 μL) with culture medium, seeded into a 384-well cell plate and incubated at 37° C. with 5% CO2 for 16-20 h.
Formulation of 250 mM Probenecid solution: according to the kit instructions, 1 mL of FLIPR buffer salt solution was added to 77 mg of probenecid, prepared fresh just before use. Formulation of Fluo-4 Direct™ (2×, 8 μM) loading buffer: according to the kit instructions, the required amount of Fluo-4 Direct™ was taken out and thawed in advance, 10 mL of FLIPR buffer salt solution and 0.2 mL of 250 mM Probenecid solution were added to each tube, and the mixture was vortexed in the dark for >5 minutes, prepared fresh just before use.
Preparation of agonist reference compound plate: the agonist was diluted 3-fold in 10 points using ECHO, and 750 nL was transferred to the corresponding compound plate using ECHO.
Preparation of reference and test compound plates: the test compound was diluted 3-fold in 10 points with ECHO, and 900 nL was transferred to the corresponding compound plate; the reference compound was diluted 3-fold in 10 points with assay buffer salt solution, and 30 μL was transferred to the compound plate.
30 μL of assay buffer salt solution was added to the corresponding compound plate, and the mixture was centrifuged at 1000 rpm for 1 minute.
The cell plate prepared the day before was taken out of the incubator, and 20 μL of 2×Fluo-4 Direct™ buffer was added to each well, with a total volume of 40 μL.
The plate was incubated in an incubator at 37° C. with 5% CO2 for 50 minutes, and then placed at room temperature for 10 minutes.
The compound plate, cell plate, and pipette tips were placed into the instrument.
For the agonist reference compound plate: the FLIPR instrument software was run, 10 μL of the pre-determined concentration of agonist reference compound was added to the cell plate following the preset protocol, and the fluorescence signal was read. After reading, the data were exported to calculate the EC80 for each cell line, and the agonist at 6×EC80 concentration was prepared.
For the compound plate: the FLIPR instrument software was run, 10 μL of the pre-determined concentration of test compound and the reference compound were added to the cell plate following the preset protocol, and the fluorescence signal was read. 10 μL of the reference compound agonist at 6×EC80 concentration was added to the cell plate, and the fluorescence signal was read. For antagonist detection of the compound, the data were exported using the “Max-Min” and “Read 1 to Maximum allowed” methods in the software, and the data were fitted using Prism.

IC50 [nM] | SMILES
1900 | CON=C1CN(C(=O)c2ccc(-c3ccccc3C)cc2)C2COCCN12 (mixture of isomers) [Example C0033, (EZ)-(3-(Methoxyimino)hexahydro-1H-imidazo[2,1-c][1,4]oxazin-1-yl)(2′-methyl-[1, 1′-biphenyl]-4-yl)methanone]
122 | CON=C1CC(C(=O)NCC(O)c2ccccc2)N(C(=O)c2ccc(-c3cccc(C#N)c3C)cc2)C1 (single isomer, unassigned) [Example A0229, (25, E)-1-(3′-Cyano-2′-methyl-[1,1′-biphenyl]-4-carbonyl)-N-(2-hydroxy-2-phenethyl)-4-(methoxyimino)pyrrolidine-2-carboxamide]
48.3 | CON=C1CC(C(=O)NCC(O)c2ccccc2)N(C(=O)c2ccc(-c3cccc(C#N)c3C)cc2)C1 (single isomer, unassigned) [Example A0233, (25, Z)-1-(3′-Cyano-2′-methyl-[1,1′-biphenyl]-4-carbonyl)-N-(2-hydroxy-2-phenethyl)-4-(methoxyimino)pyrrolidine-2-carboxamide]
1740 | CON=C1C[C@@H](CNC(C)=O)N(C(=O)c2ccc(-c3ccccc3C)cc2)C1 (single isomer, unassigned) [Example C0006]
367 | CON=C1C[C@@H](CO)N(C(=O)c2ncc(-c3cccc(C)c3C)nn2)C1 (single isomer, unassigned) [Example C0109]
98.1 | CO/N=C1\C[C@@H]([C@H](C)O)N(C(=O)c2ccc(-c3cccc(C#N)c3C)cc2)C1 (single isomer, unassigned) [Example C0110]
2940 | CON=C1C[C@@H](CO)N(C(=O)c2ccc3c(c2)COCc2c(C#N)cccc2-3)C1 (single isomer, unassigned) [Example C0142, (Z/E)-9-(2-(Hydroxymethyl)-4-(methoxyimino)pyrrolidine-1-carbonyl)-5,7-dihydrodibenzo[c,e]oxepine-4-carbonitrile]
575 | CO/N=C1\CN(C(=O)c2ccc(-c3ccccc3C)cc2)C2(COC2)C1 [Example A0041, (Z)-(7-(Methoxyimino)-2-oxa-5-azaspiro[3.4]octan-5-yl)(2′-methyl-[1, 1′-biphenyl]-4-yl)methanone]
197 | CON=C1C[C@@H](C2(O)CC2)N(C(=O)c2ccc(-c3ccccc3C)cc2)C1 [Example A0066, (S, EZ)-(2-(1-Hydroxycyclopropyl)-4-(methoxyimino)pyrrolidin-1-yl)(2′-methyl-[1,1′-biphenyl]-4-yl)methanone]
539 | CO/N=C1\CN(C(=O)c2ccc(-c3ccccc3C)cc2)C(CO)(CO)C1 [Example A0083, (Z)-(2,2-Bis(hydroxymethyl)-4-(methoxyimino)pyrrolidin-1-yl)(2′-methyl-[1, 1′-biphenyl]-4-yl)methanone]
237 | CON=C1C[C@@H](c2nc3ccccc3o2)N(C(=O)c2ccc(-c3ccccc3C)cc2)C1 [Example A0086, (S, EZ)-(2-(Benzo[d]oxazol-2-yl)-4-(methoxyimino)pyrrolidin-1-yl)(2′-methyl-[1, 1′-biphenyl]-4-yl)methanone]
815 | CO/N=C1/CN(C(=O)c2ccc(-c3ccccc3C)cc2)C2(COC2)C1 [Example A0112, (E)-(7-(Methoxyimino)-2-oxa-5-azaspiro[3.4]octan-5-yl)(2′-methyl-[1, 1′-biphenyl]-4-yl)methanone]
647 | CO/N=C1/C[C@@H](CO)N(C(=O)c2ccc(-c3cccc(C)c3C#N)cc2)C1 [Example A0130, (S, Z)-4′-(2-(Hydroxymethyl)-4-(methoxyimino)pyrrolidine-1-carbonyl)-3-methyl-[1,1′-biphenyl]-2-carbonitrile]

SMILES | IC50 [nM]
CO/N=C1/CC2(CO)CCC1N2C(=O)c1ccc(-c2ccccc2C)cc1 (single isomer, unassigned) [Example A0087] | 1080
CO/N=C1/C[C@@H](CO)N(C(=O)c2ccc(-c3ccc(C#N)cc3C)cc2)C1 (single isomer, unassigned) [Example C0093] | 1140
